These results are taken from the supplement of paper PMC11208160.
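Further: IS621 recombinase and bridge RNA in Escherichia coli cells.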

The nature of the series: recombinant barcode read abundance after kanamycin selection (control-corrected) (log10(CPM+1)); higher = more efficient recombination; sequences stand for … in AGTGCAGAGAAAATCGGCCAGTTTTCTCTGCCTGCAGTCCGCATGCCGT…AGATTTATGCAGCGGACTGCCTTTCTCCCAAAGTGATAAACCGGACAGTATCATGGACCGGTTTTCCCGGTAATCCGTATTTGCAAGGTTGGTTTCACT; site = the 11-nt target. Summed up:
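Duplicate cultures were plated either on chloramphenicol/ampicillin LB agar, serving as control, or on chloramphenicol/ampicillin/kanamycin with 0.1 mM IPTG. These came from a pooled E. coli library co-electroporated with a donor plasmid, each member pairing a target with an IS621 bridge RNA target-binding loop. Recombination efficiency equals averaged, control-corrected counts per million of recombinant-junction barcodes. It is listed as log10(CPM+1).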
Turning to “CTACTAGCTTGGGTTCTAACCTGTTGCAG (site CTACTAGCTTT)”, the “recombinant barcode read abundance (log10)” value stood at 0.0541. For the sequence “CTACTAGCTTGGGTTCTAACCTGTTGCAT (site CTACTAGCTAT)”, the “recombinant barcode read abundance (log10)” value is 1.18. For “CTACTAGCTTGGGTTCTAACCTGTTGCAT (site CTACTAGCTCT)” the value was 0.115; for “CTACTAGCTTGGGTTCTAACCTGTTGCAT (site CTACTAGCTGT)”, 0.167; for “CTACTAGCTTGGGTTCTAACCTGTTGCAT (site CTACTAGCTTT)”, 0.139.

Turning to “CTAGAAGCTTGGGTTCTAACCTGTTGCGT (site CTAGAAGCTAC)”, the “recombinant barcode read abundance (log10)” value worked out at 2.52. Take “CTAGAAGCTTGGGTTCTAACCTGTTGCGT (site CTAGGAGCTAC)”: the “recombinant barcode read abundance (log10)” value was determined as 1.05. With “CTAGACTCTTGGGTTCTAACCTGTTGCAA (site CTAGACTCTAT)”, the “recombinant barcode read abundance (log10)” value amounted to 0.644.

With “CTAGACTCTTGGGTTCTAACCTGTTGCAA (site CTAGACTCTCT)”, the “recombinant barcode read abundance (log10)” value is 0.287. For “CTAGACTCTTGGGTTCTAACCTGTTGCAA (site CTAGACTCTGT)”, the “recombinant barcode read abundance (log10)” value came to 0.0566. In the case of “CTAGACTCTTGGGTTCTAACCTGTTGCAA (site CTAGACTCTTT)”, the “recombinant barcode read abundance (log10)” value worked out at 2. With “CTAGACTCTTGGGTTCTAACCTGTTGCTC (site CTAGACTCTAA)”, the “recombinant barcode read abundance (log10)” value is 0.0434. As for “CTAGACTCTTGGGTTCTAACCTGTTGCTC (site CTAGACTCTCA)”, the “recombinant barcode read abundance (log10)” value is 0.0281. For the sequence “CTAGACTCTTGGGTTCTAACCTGTTGCTC (site CTAGACTCTGA)”, the “recombinant barcode read abundance (log10)” value was 2.84.

For “CTAGACTCTTGGGTTCTAACCTGTTGCTC (site CTAGACTCTTA)”, the “recombinant barcode read abundance (log10)” value is 0.275. On to “CTAGACTCTTGGGTTCTAACCTGTTGCTT (site CTAGACTCTAA)”, for which the “recombinant barcode read abundance (log10)” value was found to be 2.89. Turning to “CTAGACTCTTGGGTTCTAACCTGTTGCTT (site CTAGACTCTCA)”, the “recombinant barcode read abundance (log10)” value came to 0.304.

Take “CTAGACTCTTGGGTTCTAACCTGTTGCTT (site CTAGACTCTGA)”: the “recombinant barcode read abundance (log10)” value amounted to 0.0758. Turning to “CTAGACTCTTGGGTTCTAACCTGTTGCTT (site CTAGACTCTTA)”, the “recombinant barcode read abundance (log10)” value is 0.261. For “CTAGATGCTTGGGTTCTAACCTGTTGCGA (site AGTTCATCTAT)” the value was 0.0418.

Consider “CTAGATGCTTGGGTTCTAACCTGTTGCGA (site CTAGATGCTTC)”, for which the “recombinant barcode read abundance (log10)” value came out at 1.94. Take “CTAGATTCTTGGGTTCTAACCTGTTGCAT (site ACGATAACTTG)”: the “recombinant barcode read abundance (log10)” value was determined as 0.0921. Regarding “CTAGATTCTTGGGTTCTAACCTGTTGCAT (site CTAGATTCTAT)”, the “recombinant barcode read abundance (log10)” value was 2.61. Turning to “CTAGCAACTTGGGTTCTAACCTGTTGCTT (site CTAGCAACTAA)”, the “recombinant barcode read abundance (log10)” value turned out to be 0.26. For “CTAGCAACTTGGGTTCTAACCTGTTGCTT (site CTAGCAGCTAT)” the value was 0.124. For “CTAGCAGCTTGGGTTCTAACCTGTTGCAT (site CTAGCAACTAA)” the value was 0.197; for “CTAGCAGCTTGGGTTCTAACCTGTTGCAT (site CTAGCAGCTAT)”, 0.434. Consider “CTAGCCACTTGGGTTCTAACCTGTTGCTA (site CTAGCCACTTA)”, for which the “recombinant barcode read abundance (log10)” value amounted to 1.01. Turning to “CTAGCCACTTGGGTTCTAACCTGTTGCTA (site CTAGCGACTCA)”, the “recombinant barcode read abundance (log10)” value came out at 0.38.

For the sequence “CTAGGAACTTGGGTTCTAACCTGTTGCTA (site AGGTTCCCTCC)”, the “recombinant barcode read abundance (log10)” value stood at 0.454.

Consider “CTAGGAACTTGGGTTCTAACCTGTTGCTA (site CTAGGAACTTA)”, for which the “recombinant barcode read abundance (log10)” value was 0.635.

As for “CTAGGAGCTTGGGTTCTAACCTGTTGCTC (site CTAGGAGCTAA)”, the “recombinant barcode read abundance (log10)” value was found to be 0.241. For “CTAGGAGCTTGGGTTCTAACCTGTTGCTC (site CTAGGAGCTCA)”, the “recombinant barcode read abundance (log10)” value worked out at 0.222. “CTAGGAGCTTGGGTTCTAACCTGTTGCTC (site CTAGGAGCTGA)”: the “recombinant barcode read abundance (log10)” value was determined as 0.885. Turning to “CTAGGAGCTTGGGTTCTAACCTGTTGCTC (site CTAGGAGCTTA)”, the “recombinant barcode read abundance (log10)” value amounted to 0.126. For the sequence “CTAGTGACTTGGGTTCTAACCTGTTGCGA (site CTAGTGACTAC)”, the “recombinant barcode read abundance (log10)” value worked out at 0.0588. Consider “CTAGTGACTTGGGTTCTAACCTGTTGCGA (site CTAGTGACTCC)”, for which the “recombinant barcode read abundance (log10)” value amounted to 0.576. In the case of “CTAGTGACTTGGGTTCTAACCTGTTGCGA (site CTAGTGACTGC)”, the “recombinant barcode read abundance (log10)” value is 0.0599.

Regarding “CTAGTGACTTGGGTTCTAACCTGTTGCGA (site CTAGTGACTTC)”, the “recombinant barcode read abundance (log10)” value stood at 1.99. “CTAGTGACTTGGGTTCTAACCTGTTGCGG (site CTAGTGACTAC)”: the “recombinant barcode read abundance (log10)” value is 0.0948. As to “CTAGTGACTTGGGTTCTAACCTGTTGCGG (site CTAGTGACTCC)”, the “recombinant barcode read abundance (log10)” value was determined as 1.74. Regarding “CTAGTGACTTGGGTTCTAACCTGTTGCGG (site CTAGTGACTGC)”, the “recombinant barcode read abundance (log10)” value was found to be 0.141.

As for “CTAGTGACTTGGGTTCTAACCTGTTGCGG (site CTAGTGACTTC)”, the “recombinant barcode read abundance (log10)” value worked out at 0.352. For the sequence “CTAGTGTCTTGGGTTCTAACCTGTTGCAC (site CTAGTCACTGT)”, the “recombinant barcode read abundance (log10)” value amounted to 0.198. On to “CTAGTGTCTTGGGTTCTAACCTGTTGCAC (site CTAGTGTCTGT)”, for which the “recombinant barcode read abundance (log10)” value amounted to 1.88. As to “CTAGTGTCTTGGGTTCTAACCTGTTGCTA (site CTAGTGTCTTA)”, the “recombinant barcode read abundance (log10)” value came to 2.72. In the case of “CTAGTGTCTTGGGTTCTAACCTGTTGCTA (site GTAGTGTCTTA)”, the “recombinant barcode read abundance (log10)” value came to 0.0109. Consider “CTATAGGCTTGGGTTCTAACCTGTTGCCT (site ATATACGCTAG)”, for which the “recombinant barcode read abundance (log10)” value was 0.0845. Turning to “CTATAGGCTTGGGTTCTAACCTGTTGCCT (site CTATAGGCTAG)”, the “recombinant barcode read abundance (log10)” value was 0.159. In the case of “CTATATACTTGGGTTCTAACCTGTTGCCA (site CTATATACTTG)”, the “recombinant barcode read abundance (log10)” value is 0.154. With “CTATATACTTGGGTTCTAACCTGTTGCCA (site CTGTATACTTG)”, the “recombinant barcode read abundance (log10)” value came to 0. Regarding “CTATATACTTGGGTTCTAACCTGTTGCTT (site CTAAATACTAA)”, the “recombinant barcode read abundance (log10)” value came to 0.088. For “CTATATACTTGGGTTCTAACCTGTTGCTT (site CTATATACTAA)” the value was 0.804; for “CTATGAACTTGGGTTCTAACCTGTTGCCA (site CTATGAACTTG)”, 0.283. Under “CTATGAACTTGGGTTCTAACCTGTTGCCA (site GACATTCCTAA)” stands 0.0769; under “CTATGACCTTGGGTTCTAACCTGTTGCAT (site CTATGACCTAA)”, 0.0613; under “CTATGACCTTGGGTTCTAACCTGTTGCAT (site CTATGACCTAC)”, 0.139.

For the sequence “CTATGACCTTGGGTTCTAACCTGTTGCAT (site CTATGACCTAG)”, the “recombinant barcode read abundance (log10)” value was 0.19.

Regarding “CTATGACCTTGGGTTCTAACCTGTTGCAT (site CTATGACCTAT)”, the “recombinant barcode read abundance (log10)” value amounted to 0.568. For “CTATGACCTTGGGTTCTAACCTGTTGCGT (site CTATGACCTAA)”, the “recombinant barcode read abundance (log10)” value came to 0.191. Take “CTATGACCTTGGGTTCTAACCTGTTGCGT (site CTATGACCTAC)”: the “recombinant barcode read abundance (log10)” value stood at 2.11. Consider “CTATGACCTTGGGTTCTAACCTGTTGCGT (site CTATGACCTAG)”, for which the “recombinant barcode read abundance (log10)” value was found to be 0.211. As for “CTATGACCTTGGGTTCTAACCTGTTGCGT (site CTATGACCTAT)”, the “recombinant barcode read abundance (log10)” value stood at 1.26. With “CTATGACCTTGGGTTCTAACCTGTTGCTT (site CTATGACCTAA)”, the “recombinant barcode read abundance (log10)” value worked out at 1.4. In the case of “CTATGACCTTGGGTTCTAACCTGTTGCTT (site CTATGACCTAC)”, the “recombinant barcode read abundance (log10)” value came to 0.0411. In the case of “CTATGACCTTGGGTTCTAACCTGTTGCTT (site CTATGACCTAG)”, the “recombinant barcode read abundance (log10)” value was found to be 1.26. On to “CTATGACCTTGGGTTCTAACCTGTTGCTT (site CTATGACCTAT)”, for which the “recombinant barcode read abundance (log10)” value is 0.394.

Take “CTATGGACTTGGGTTCTAACCTGTTGCAA (site CTATGGACTAT)”: the “recombinant barcode read abundance (log10)” value was 0.0174. As for “CTATGGACTTGGGTTCTAACCTGTTGCAA (site CTATGGACTCT)”, the “recombinant barcode read abundance (log10)” value stood at 0.23. Take “CTATGGACTTGGGTTCTAACCTGTTGCAA (site CTATGGACTGT)”: the “recombinant barcode read abundance (log10)” value came to 0.274. As to “CTATGGACTTGGGTTCTAACCTGTTGCAA (site CTATGGACTTT)”, the “recombinant barcode read abundance (log10)” value is 1.39. For “CTATGGACTTGGGTTCTAACCTGTTGCAT (site CTATGGACTAT)”, the “recombinant barcode read abundance (log10)” value came to 0.348.

As for “CTATGGACTTGGGTTCTAACCTGTTGCAT (site CTATGGACTCT)”, the “recombinant barcode read abundance (log10)” value was found to be 0.614. In the case of “CTATGGACTTGGGTTCTAACCTGTTGCAT (site CTATGGACTGT)”, the “recombinant barcode read abundance (log10)” value came to 0.217.

“CTATGGACTTGGGTTCTAACCTGTTGCAT (site CTATGGACTTT)”: the “recombinant barcode read abundance (log10)” value is 0.0336.

For “CTATGTCCTTGGGTTCTAACCTGTTGCGT (site CTATGTCCTAC)”, the “recombinant barcode read abundance (log10)” value came out at 1.44. On to “CTATGTCCTTGGGTTCTAACCTGTTGCGT (site GGATGTCCTAC)”, for which the “recombinant barcode read abundance (log10)” value stood at 0.228.
